From ChEMBL document CHEMBL1122789, “Synthesis and biological activity of structural analogues of the anticancer benzophenanthridine alkaloid nitidine chloride” (1984)

Columns and labels:
Type in all cases: functional, Mus musculus
B16 = test: Evaluated for anticancer activity in survival tumor system B16 melanocarcinoma at a dose of 50 mg/kg; number of Tested survived/number of control survived
[1] = Evaluated for anticancer activity in tumor inhibition system CD8F1 mammary tumor at dose 62 mg/kg
P388 = test: Evaluated for anticancer activity in survival tumor system P388 lymphocytic leukemia at a dose of 25 mg/kg;Number of Tested survived/number of control survived (5/6)

COc1cc2c[n+](C)c3c(c2cc1OC)Cc1cc2c(cc1-3)OCO2.[Cl-]
Survival (B16): 10
T/C [1]: 92%
Survival (P388): 5
